“And” between values parts separate entries of the source, which are not always exact repeats. Equal values may be shown once.
Legend:
Assay type in all cases: cell-based
[1] = system: H596; experiment: MTT assay, growth inhibition by deguelin or deguelin derivatives; conditions: 3 days
[2] = system: NSCLC cells; experiment: MTT assay, growth inhibition of NSCLC cells by deguelin and deguelin derivatives (Table 2, FIG. 7); conditions: 0.01-1 μM, 3 days
[3] = system: H460; experiment: MTT assay, growth inhibition by deguelin or deguelin derivatives; conditions: 3 days
[4] = system: H358; experiment: as above; conditions: 3 days
[5] = system: A549; experiment: as above; conditions: 3 days
[6] = system: H322; experiment: as above; conditions: 3 days
[7] = system: H1299; experiment: as above; conditions: 3 days

## methoxyrot-2′-enoic acid
[1]; H596, 0.01 μM
  % control: 6%
  MTT assay reading, Average: 0.0931
  MTT assay reading, individual replicate: 0.037 and 0.055 and 0.067 and 0.122 and 0.101 and 0.118
[1]; H596, 0.1 μM
  % control: 20%
  MTT assay reading, Average: 0.3181
  MTT assay reading, individual replicate: 0.287 and 0.3 and 0.326 and 0.366 and 0.289 and 0.321 and 0.338
[1]; H596, 0.5 μM
  % control: 23%
  MTT assay reading, Average: 0.3653
  MTT assay reading, individual replicate: 0.28 and 0.434 and 0.344 and 0.446 and 0.348 and 0.383 and 0.322
[1]; H596, 1 μM
  % control: 26%
  MTT assay reading, Average: 0.405
  MTT assay reading, individual replicate: 0.422 and 0.37 and 0.481 and 0.573 and 0.319 and 0.328 and 0.342
[2]
  inhibiting cell growth in NSCLC cells, ranking among the derivatives: most effective
[3]; H460, 0.01 μM
  % control: 0.11%
  MTT assay reading, Average: 0.1897
  MTT assay reading, individual replicate: 0.037 and 0.62 and 0.096 and 0.098 and 0.122 and 0.16 and 0.195
[3]; H460, 0.1 μM
  % control: 0.08%
  MTT assay reading, Average: 0.1399
  MTT assay reading, individual replicate: 0.139 and 0.105 and 0.129 and 0.16 and 0.133 and 0.147 and 0.166
[3]; H460, 0.5 μM
  % control: 0.16%
  MTT assay reading, Average: 0.2786
  MTT assay reading, individual replicate: 0.297 and 0.26 and 0.302 and 0.283 and 0.291 and 0.282 and 0.235
[3]; H460, 1 μM
  % control: 0.17%
  MTT assay reading, Average: 0.2933
  MTT assay reading, individual replicate: 0.276 and 0.322 and 0.282 and 0.298 and 0.311 and 0.29 and 0.274
[4]; H358, 0.01 μM
  % control: 69%
  MTT assay reading, Average: 0.5804
  MTT assay reading, individual replicate: 0.414 and 0.525 and 0.579 and 0.603 and 0.68 and 0.612 and 0.65
[4]; H358, 0.1 μM
  % control: 29%
  MTT assay reading, Average: 0.2433
  MTT assay reading, individual replicate: 0.196 and 0.173 and 0.287 and 0.284 and 0.293 and 0.247 and 0.223
[4]; H358, 0.5 μM
  % control: 34%
  MTT assay reading, Average: 0.2884
  MTT assay reading, individual replicate: 0.212 and 0.331 and 0.284 and 0.282 and 0.478 and 0.2 and 0.232
[4]; H358, 1 μM
  % control: 36%
  MTT assay reading, Average: 0.3047
  MTT assay reading, individual replicate: 0.283 and 0.248 (2×) and 0.306 and 0.3 and 0.343 and 0.405
[5]; A549, 0.01 μM
  MTT assay reading, Average: 0.2983
  MTT assay reading, individual replicate: 0.286 and 0.219 and 0.272 and 0.298 and 0.36 and 0.344 and 0.309
[5]; A549, 0.1 μM
  MTT assay reading, Average: 0.6833
  MTT assay reading, individual replicate: 0.693 and 0.467 and 0.636 and 0.687 and 0.753 and 0.796 and 0.751
[5]; A549, 0.5 μM
  MTT assay reading, Average: 0.5794
  MTT assay reading, individual replicate: 0.542 and 0.837 and 0.514 and 0.534 and 0.588 and 0.579 and 0.462
[5]; A549, 1 μM
  MTT assay reading, Average: 0.6031
  MTT assay reading, individual replicate: 0.783 and 0.583 and 0.67 and 0.758 and 0.515 and 0.477 and 0.436
[6]; H322, 0.01 μM
  % control: 97%
  MTT assay reading, Average: 0.8434
  MTT assay reading, individual replicate: 0.729 and 0.806 and 0.748 and 0.791 and 0.898 and 1.011 and 0.921
[6]; H322, 0.1 μM
  % control: 55%
  MTT assay reading, Average: 0.4803
  MTT assay reading, individual replicate: 0.322 and 0.412 and 0.406 and 0.52 and 0.585 and 0.58 and 0.537
[6]; H322, 0.5 μM
  % control: 43%
  MTT assay reading, Average: 0.3787
  MTT assay reading, individual replicate: 0.32 and 0.314 and 0.388 and 0.393 and 0.466 and 0.443 and 0.327
[6]; H322, 1 μM
  % control: 40%
  MTT assay reading, Average: 0.3461
  MTT assay reading, individual replicate: 0.271 and 0.348 and 0.409 and 0.352 and 0.361 and 0.324 and 0.358
[7]; H1299, 0.01 μM
  % control: 0.48%
  MTT assay reading, Average: 0.7507
  MTT assay reading, individual replicate: 0.707 and 0.725 and 0.796 and 0.793 and 0.86 and 0.656 and 0.718
[7]; H1299, 0.1 μM
  % control: 0.29%
  MTT assay reading, Average: 0.4579
  MTT assay reading, individual replicate: 0.401 and 0.474 and 0.434 and 0.387 and 0.526 and 0.465 and 0.518
[7]; H1299, 0.5 μM
  % control: 0.25%
  MTT assay reading, Average: 0.3934
  MTT assay reading, individual replicate: 0.425 and 0.405 and 0.342 and 0.497 and 0.278 and 0.503 and 0.304
[7]; H1299, 1 μM
  % control: 0.22%
  MTT assay reading, Average: 0.3396
  MTT assay reading, individual replicate: 0.29 and 0.384 and 0.395 and 0.301 and 0.289 and 0.346 and 0.372

— US20060128792A1, “Deguelin as a chemopreventive agent for lung cancer” (priority 2002, published 2006)
